Marks after values point to notes of the source that are not given here.
Key:
[1] = tested on: rats; experiment: Ischemic stroke (middle cerebral artery occlusion), McGrow scale; format: in vivo
Source text: The stroke condition was simulated in male rats (270-320 g) at a local cerebral hemorrhage, as a hemorrhagic stroke (intracerebral post-traumatic hematoma) by the method of A. N. Makarenko et al (1990) and at cerebral ischemia with distal occlusion of the middle cerebral artery (Chen S. T., Hsu C. Y., Hogan E. L., Maricq H., Balentine J. D. A model of focal ischemic stroke in the rat reproducible extensive cortical infarction//Stroke.—1989, V. 17, No 4, p. 738-743) as an ischemic stroke. Phenotropil was injected intraperitoneally at hemorrhagic stroke at 100 mg/kg immediately after surgery, and one hour before and two hours after the surgery (at doses of 100, 200 and 300 mg/kg) at ischemic stroke. Control animals were treated adequately with distilled water.

[2] = tested on: influenza; experiment: Respiratory viral infection (influenza) of mice during life duration study; format: in vivo; conditions: influenza outbreak
[3] = tested on: women; experiment: Skin aging, vessels and joints, topical solution and creams; format: in vivo, human; conditions: for Efficacy in % relative to baseline control (skin aging) / Efficacy in % (skin aging) / Efficacy expressed in % (age-related changes of blood vessels and joints) / Efficacy expressed in % (skin aging): humans, topical course; for Efficacy in % (skin aging): baseline control = 100.0; for Efficacy expressed in % (age-related changes of blood vessels and joints) / Efficacy expressed in % (skin aging): baseline control = 100
Protocol: Example 24 presents the results of research of Phenotropil as parapharmaceutic—cosmeceutical agents in women (age 53-60 years) and as a standard solution. The 0.1% water solution (distilled water) of Phenotropil and placebo was prepared; for convenience of preparing therapeutic cream formulation, the standard composition of cream base was used, or actual creams “Vecher”, “Lux” and “Gerantol” manufactured by “Svoboda” (Russia) were used as the base, with 100, 200, 300 mg of Phenotropil per 100 g of finished compositions to prepare a cosmeceutical agent. The cosmeceutical formulations were prepared with the powder of Compound 1 sifted and well ground in a mortar.
At baseline examination, main indicators of the skin condition of the hands and face in the groups were recorded, integral index for aggregate characteristics was calculated (dryness, wrinkling, superficial vascular fascicles, the intensity of subcutaneous vascular pattern, pigmentation—the intensity of color, the number of pigment spots and their total area). Preliminarily, each subject was tested for allergic skin reaction with the most concentrated formulation. No allergic reactions have been identified. In one group, only solution of Phenotropil was used in the morning and evening, applying a small amount (like a regular lotion) of the solution on cosmetic cotton pads and wiping the face and hands. In the other groups, this procedure was carried out before applying the Phenotropil-containing cream. The results of the baseline evaluation in each group were taken for 100.0%.

[4] = 100 mg/kg i.p. after MCAO, first day
[5] = 100 mg/kg i.p. after MCAO, second day
[6] = 100 mg/kg i.p. after MCAO, third day
[7] = 100 mg/kg i.p. before MCAO, first day
[8] = 100 mg/kg i.p. before MCAO, second day
[9] = 100 mg/kg i.p. before MCAO, third day
[10] = 200 mg/kg i.p. after MCAO, first day
[11] = 200 mg/kg i.p. after MCAO, second day
[12] = 200 mg/kg i.p. after MCAO, third day
[13] = 200 mg/kg i.p. before MCAO, first day
[14] = 200 mg/kg i.p. before MCAO, second day
[15] = 200 mg/kg i.p. before MCAO, third day
[16] = 300 mg/kg i.p. after MCAO, first day
[17] = 300 mg/kg i.p. after MCAO, second day
[18] = 300 mg/kg i.p. after MCAO, third day
[19] = 300 mg/kg i.p. before MCAO, first day
[20] = 300 mg/kg i.p. before MCAO, second day
[21] = 300 mg/kg i.p. before MCAO, third day

NC(=O)CN1CC(c2ccccc2)CC1=O (racemic) [Compound 1, (RS)-2-(2-oxo-4-phenylpyrrolidine-1-yl)acetamide]
animals (out of 10) with circling movements [1, 4]: 0*
animals (out of 10) with lethargy, slowness of functions [1, 4]: 4*
animals (out of 10) with tremor [1, 4]: 2*
animals (out of 10) with unilateral hemiptosis [1, 4]: 4
animals (out of 10) with circling movements [1, 5]: 0*
animals (out of 10) with lethargy, slowness of functions [1, 5]: 3*
animals (out of 10) with tremor [1, 5]: 0*
animals (out of 10) with unilateral hemiptosis [1, 5]: 5
animals (out of 10) with circling movements [1, 6]: 0
animals (out of 10) with lethargy, slowness of functions [1, 6]: 2*
animals (out of 10) with tremor [1, 6]: 0
animals (out of 10) with unilateral hemiptosis [1, 6]: 3
animals (out of 10) with circling movements [1, 7]: 0*
animals (out of 10) with lethargy, slowness of functions [1, 7]: 2*
animals (out of 10) with tremor [1, 7]: 2*
animals (out of 10) with unilateral hemiptosis [1, 7]: 4
animals (out of 10) with circling movements [1, 8]: 0*
animals (out of 10) with lethargy, slowness of functions [1, 8]: 1*
animals (out of 10) with tremor [1, 8]: 0*
animals (out of 10) with unilateral hemiptosis [1, 8]: 5
animals (out of 10) with circling movements [1, 9]: 0
animals (out of 10) with lethargy, slowness of functions [1, 9]: 1*
animals (out of 10) with tremor [1, 9]: 0
animals (out of 10) with unilateral hemiptosis [1, 9]: 3
animals (out of 10) with circling movements [1, 10]: 0*
animals (out of 10) with lethargy, slowness of functions [1, 10]: 4*
animals (out of 10) with tremor [1, 10]: 2*
animals (out of 10) with unilateral hemiptosis [1, 10]: 3
animals (out of 10) with circling movements [1, 11]: 0*
animals (out of 10) with lethargy, slowness of functions [1, 11]: 3*
animals (out of 10) with tremor [1, 11]: 0*
animals (out of 10) with unilateral hemiptosis [1, 11]: 4
animals (out of 10) with circling movements [1, 12]: 0
animals (out of 10) with lethargy, slowness of functions [1, 12]: 1*
animals (out of 10) with tremor [1, 12]: 0
animals (out of 10) with unilateral hemiptosis [1, 12]: 3
animals (out of 10) with circling movements [1, 13]: 0*
animals (out of 10) with lethargy, slowness of functions [1, 13]: 3*
animals (out of 10) with tremor [1, 13]: 3*
animals (out of 10) with unilateral hemiptosis [1, 13]: 4
animals (out of 10) with circling movements [1, 14]: 0*
animals (out of 10) with lethargy, slowness of functions [1, 14]: 2*
animals (out of 10) with tremor [1, 14]: 0*
animals (out of 10) with unilateral hemiptosis [1, 14]: 4
animals (out of 10) with circling movements [1, 15]: 0
animals (out of 10) with lethargy, slowness of functions [1, 15]: 0*
animals (out of 10) with tremor [1, 15]: 0
animals (out of 10) with unilateral hemiptosis [1, 15]: 3
animals (out of 10) with circling movements [1, 16]: 0*
animals (out of 10) with lethargy, slowness of functions [1, 16]: 4*
animals (out of 10) with tremor [1, 16]: 3*
animals (out of 10) with unilateral hemiptosis [1, 16]: 3
animals (out of 10) with circling movements [1, 17]: 0*
animals (out of 10) with lethargy, slowness of functions [1, 17]: 2*
animals (out of 10) with tremor [1, 17]: 0*
animals (out of 10) with unilateral hemiptosis [1, 17]: 5
animals (out of 10) with circling movements [1, 18]: 0
animals (out of 10) with lethargy, slowness of functions [1, 18]: 1*
animals (out of 10) with tremor [1, 18]: 0
animals (out of 10) with unilateral hemiptosis [1, 18]: 3
animals (out of 10) with circling movements [1, 19]: 0*
animals (out of 10) with lethargy, slowness of functions [1, 19]: 2*
animals (out of 10) with tremor [1, 19]: 2*
animals (out of 10) with unilateral hemiptosis [1, 19]: 4
animals (out of 10) with circling movements [1, 20]: 0*
animals (out of 10) with lethargy, slowness of functions [1, 20]: 1*
animals (out of 10) with tremor [1, 20]: 0*
animals (out of 10) with unilateral hemiptosis [1, 20]: 5
animals (out of 10) with circling movements [1, 21]: 0
animals (out of 10) with lethargy, slowness of functions [1, 21]: 0*
animals (out of 10) with tremor [1, 21]: 0
animals (out of 10) with unilateral hemiptosis [1, 21]: 3
surviving mice that did not get sick [2]: 46%
surviving mice that had been ill but survived [2]: 54%
mice died, total in treated groups ([2]; all control animals died): 15%
subjects with mild morning facial swelling ([3]; cream applied less than two hours before bedtime): 18.0%
Efficacy in % relative to baseline control (skin aging) ([3]; 50 mg + “Gerantol” cream 100 g): 132.0 * %
Efficacy in % (skin aging) ([3]; 50 mg + “Lux” cream 100 g): 167.0 * %
Efficacy expressed in % (age-related changes of blood vessels and joints) ([3]; 100 mg + 100 g of cream base): 211* %
Efficacy in % relative to baseline control (skin aging) ([3]; 100 mg + “Gerantol” cream 100 g): 205.0 * %
Efficacy in % (skin aging) ([3]; 100 mg + “Lux” cream 100 g): 210.0 * %
Efficacy expressed in % (skin aging) ([3]; 100 mg + “Vecher” cream 100 g): 317* %
Efficacy expressed in % (age-related changes of blood vessels and joints) ([3]; 200 mg + 100 g of cream base): 219* %
Efficacy in % relative to baseline control (skin aging) ([3]; 200 mg + “Gerantol” cream 100 g): 251.0 * %
Efficacy in % (skin aging) ([3]; 200 mg + “Lux” cream 100 g): 240.0 * %
Efficacy expressed in % (skin aging) ([3]; 200 mg + “Vecher” cream 100 g): 280* %
Efficacy expressed in % (age-related changes of blood vessels and joints) ([3]; 300 mg + 100 g of cream base): 174* %
Efficacy in % relative to baseline control (skin aging) ([3]; 300 mg + “Gerantol” cream 100 g): 277.0 * %
Efficacy in % (skin aging) ([3]; 300 mg + “Lux” cream 100 g): 280.0 * %
Efficacy expressed in % (skin aging) ([3]; 300 mg + “Vecher” cream 100 g): 249* %
Efficacy in % (skin aging) ([3]; aqueous solution 0.1%): 212.0* %
Efficacy in % (skin aging) ([3]; cream, 50 mg per 100 g of the base): 140.0 * %
Efficacy in % (skin aging) ([3]; cream, 100 mg per 100 g of the base): 180.0 * %
Efficacy in % (skin aging) ([3]; cream, 200 mg per 100 g of the base): 187.0 * %
Efficacy in % (skin aging) ([3]; cream, 300 mg per 100 g of the base): 200.0 * %
